Data published in patent publication US6403554B2, “Polyunsaturated fatty acid derivatives and their use” (Ardenia Investments Ltd., priority 1998, dated 2002).
Entries after “also recorded” stand apart in the source; their conditions may differ.

Test system: antibody-forming cells (AFC) in the spleen
Assay: Influence of compound on humoral immune response to sheep erythrocytes, C57B1/6 female mice (AFC in spleen, hemagglutinins)
Format: in vivo
Conditions: for Amount of antibody-forming cells per 10^6 spleen cells / Amount of antibody-forming cells per spleen / Effect on relative amount of AFC (per 10^6 spleen cells) / Effect on total AFC amount (per spleen) / Amount of hemagglutinins / Spleen index / Effect on hemagglutinin titers: i.v.; for Amount of antibody-forming cells per 10^6 spleen cells / Amount of antibody-forming cells per spleen / Effect on relative amount of AFC (per 10^6 spleen cells) / Effect on total AFC amount (per spleen): 5th day; for Amount of antibody-forming cells per 10^6 spleen cells / Amount of antibody-forming cells per spleen: M ± SEM; for Effect on relative amount of AFC (per 10^6 spleen cells) / Effect on total AFC amount (per spleen) / Effect on hemagglutinin titers: vs control; for Amount of hemagglutinins: serum; for Spleen index: with SRBC i.p.
Method: The increase was calculated as compared with the amount of cells in the animals immunised only with sheep erythrocytes.
0.15 ml of compound 10 was administered intravenously to 6 mice females of CS7B1/6 line (weight 18-22 g) in doses of 45.5, 91 and 136.5 μg of compound 10 per capita for each testing group according to the dose. Simultaneously, a suspension of 5·10^7 sheep erythrocytes was injected intraperitoneally (0.2 ml per capita). Mice in the control group were injected intravenously with equal volume of saline. The effects of compound 10 on humoral immune response were analyzed both by counting the quantity of AFC in the spleen according to Cunningham (per 10^6 spleen cells and per spleen) and estimating the titers of hemagglutining antibodies in serum of the animals (Cunningham A. J., Nature, 1965, Vol.207, No 5001. P.1106-1107), while the titers of hemagglutinating antibodies were evaluated according to litterature (Evans J. et al., Cell, 1974; Vol 3., p.153-158, Feizi T., Menger E., Transfusion, 1970, Vol. 10, p.33-35,).
(§1) 0.15 ml of compound 11 was administered intravenously to 6 female mice of the C57B1/6 line (weight 18-22 g) in doses of 45.5, 91 and 136.5 μg of compound 11 per capita for each testing group according to the dose. Simultaneously, a suspension of 5·10^7 sheep erytrocytes was injected intraperitoneally (0.2 ml per capita). Mice in the control group were injected intravenously with an equal volume of saline. The effects of compound 11 on humoral immune response was analysed both by counting the quantity of AFC in the spleen according to Cunningham (per 10^6 spleen cells and per spleen) and estimating the titers of hemagglutining antibodies in serum of the animals.
as §1, with “12” for “11”, “erythrocytes” for “erytrocytes”, “analyzed” for “analysed”
as §1, with “compound 8” for “compound 11”, “sheep erythrocytes” for “sheep erytrocytes”, “Mice of” for “Mice in”, “response were analyzed” for “response was analysed”
0.15 ml of compound 3 was administered intravenously to 6 female mice of the C57B1/6 line (weight 18-22 g) in doses of 45.5, 91 and 136.5 μg of compound 3 per capita for each testing group according to the dose. Simultaneously, a suspension of 5·10^7 sheep erytrocytes was injected intraperitoneally (0.2 ml per capita). Mice of the control group were injected intravenously with equal volume of saline.

| Structure (SMILES) | Amount of antibody-forming cells per 10^6 spleen cells (45.5 μg/mouse) | Amount of antibody-forming cells per spleen (45.5 μg/mouse) | Effect on relative amount of AFC (per 10^6 spleen cells) (45.5 μg/mouse) | Effect on total AFC amount (per spleen) (45.5 μg/mouse) | Spleen index (45.5 μg/mouse) | Amount of antibody-forming cells per 10^6 spleen cells (91 μg/mouse) | Amount of antibody-forming cells per spleen (91 μg/mouse) | Effect on relative amount of AFC (per 10^6 spleen cells) (91 μg/mouse) | Effect on total AFC amount (per spleen) (91 μg/mouse) | Effect on hemagglutinin titers (91 μg/mouse) | Spleen index (91 μg/mouse) | immunostimulating action (136.5 μg/mouse) | Amount of antibody-forming cells per 10^6 spleen cells (136.5 μg/mouse) | Amount of antibody-forming cells per spleen (136.5 μg/mouse) | Amount of hemagglutinins (136.5 μg/mouse) | Effect on hemagglutinin titers (136.5 μg/mouse) | Spleen index (136.5 μg/mouse) | Immunogenic activity (45.5 and 91 μg/mouse) | Effect on hemagglutinin titers (45.5 μg/mouse) | further results |
| --- | --- | --- | --- | --- | --- | --- | --- | --- | --- | --- | --- | --- | --- | --- | --- | --- | --- | --- | --- | --- |
| CC/C=C\C/C=C\C/C=C\CCCCCCCC(=O)NCCOP(=O)(O)O [Compound 17, N-(cis-9,12,15-octadecatrienoyl)-O-phospho-2-aminoethanol] | 457.3±40.7 cells per 10^6 spleen cells | 51.1±4.4 × 10^3 | −3.0 p > 0.05% | −7.4 p > 0.05% | 5.8 ± 10^−3 | 523.8±45.3 cells per 10^6 spleen cells | 63.5±5.1 × 10^3 | +11.1 p > 0.05% | +15.0 p > 0.05% | +2.6 p > 0.05% | 5.7 ± 10^−3 | marked immunostimulating action | 619.6±38.9 cells per 10^6 spleen cells | 71.6±4.7 × 10^3 | 7.8 ± 0.4 Log2 T | +2.6 p > 0.05% | 5.9 ± 10^−3 | no immunogenic activity |  | Amount of hemagglutinins (45.5 μg/mouse): 7.6 ± 0.2 Log2 T; Amount of hemagglutinins (91 μg/mouse): 7.8 ± 0.3 Log2 T |
| CC1=C(/C=C/C(C)=C/C=C/C(C)=C\C(=O)NCCOP(=O)(O)O)C(C)(C)CCC1 [Compound 1a, N-(13cis-Retinoyl)-O-phospho-2-aminoethanol] | 815.8±70.9 cells per 10^6 spleen cells | 104.6±10.7 × 10^3 | +5.6 p > 0.05% | +16.4 p > 0.05% | 6.1 ± 0.2 10^−3 | 997.2±43.4 cells per 10^6 spleen cells | 114.5±8.2 × 10^3 |  |  | −1,3 p > 0.05% | 6.2 ± 0.2 10^−3 |  | 1176.9±58.5 cells per 10^6 spleen cells | 149.4±9.4 × 10^3 |  | +6,5 p > 0.05% | 6.9 ± 0.3 10^−3 |  | −1,3 p > 0.05% | Immunogenic activity (45.5 μg/mouse): no immunogenic activity; immunostimulating effect in vivo in micelle form (91 μg/mouse): display immunostimulating effect in vivo; immunostimulating action (91 and 136.5 μg/mouse): marked immunostimulating action |
| CC/C=C\C/C=C\C/C=C\C/C=C\C/C=C\CCCC(=O)NCCOP(=O)(O)O [Compound 13, N-(cis-5,8,11,14,17-eicosapentaenoyl)-O-phospho-2-aminoethanol] | 608.2±61.3 cells per 10^6 spleen cells | 48.2±6.5 × 10^3 | −3.2 p > 0.05% | +5.0 p > 0.05% | 5.4 ± 0.6 10^−3 | 525.0±97.2 cells per 10^6 spleen cells | 49.4±6.2 × 10^3 | −16.5 p > 0.05% | +7.6 p > 0.65% | +5,6 p > 0.05% | 5.7 ± 0.8 10^−3 | high immunostimulating action; also recorded: marked immunostimulating action | 885.9±65.8 cells per 10^6 spleen cells | 68.2±6.9 × 10^3 |  | +14,4 p > 0.05% | 5.3 ± 0.4 10^−3 | no immunogenic activity | +7,8 p > 0.05% |  |
| CC/C=C\C/C=C\C/C=C\CCCCCCCC(=O)N[C@@H](Cc1ccc(OP(=O)(O)O)cc1)C(=O)O [Compound 20, N-(cis-9,12,15-octadecatrienoyl)-O-phospho-L-tyrosine] | 512.8±46.2 cells per 10^6 spleen cells | 46.4±4.8 × 10^3 | −9.8 p > 0.05% | −7.4 p > 0.05% | 6.3 ± 0.3 10^−3 | 634.5±51.7 cells per 10^6 spleen cells | 55.7±5.6 × 10^3 | +11.6 p > 0.05% | +11.2 p > 0.05% | +1.4 p > 0.05% | 6.5 ± 0.2 10^−3 | marked immunostimulating action | 845.1±43.1 cells per 10^6 spleen cells | 75.8±7.7 × 10^3 |  | +2.7 p > 0.05% | 6.4 ± 0.4 10^−3 | no immunogenic activity |  |  |
| CC/C=C\C/C=C\C/C=C\C/C=C\C/C=C\C/C=C\CCC(=O)N[C@H](C(=O)O)[C@@H](C)OP(=O)(O)O [Compound 11, N-(cis-4,7,10,13,16,19-docosahexaenoyl)-O-phospho-L-threonine] | 676.8±77.1 cells per 10^6 spleen cells | 85.9±8.3 × 10^3 | −15.3 p > 0.05% | −15.0 p > 0.05% | 6.2 ± 0.2 10^−3 | 896.8±111.8 cells per 10^6 spleen cells | 111.2±11.8 × 10^3 | +12.2 p > 0.05% | +10.0 p > 0.05% | −3.6 p > 0.05% | 6.9 ± 0.5 10^−3 | marked immunostimulating action | 1336.5±59.0 cells per 10^6 spleen cells | 182.5±7.8 × 10^3 | 9.3±0.2 Log2 T |  | 7.5 ± 0.4 10^−3 | no immunogenic activity | 0% |  |
| CC/C=C\C/C=C\C/C=C\C/C=C\C/C=C\C/C=C\CCC(=O)N[C@@H](Cc1ccc(OP(=O)(O)O)cc1)C(=O)O [Compound 12, N-(cis-4,7,10,13,16,19-docosahexaenoyl)-O-phospho-L-tyrosine] | 263.8±23.6 cells per 10^6 spleen cells | 31.8±2.8 × 10^3 | −9.4 p >0.05% | −9.1 p >0.05% | 6.3 ± 0.3 10^−3 | 307.8±30.9 cells per 10^6 spleen cells | 40.2±2.7 × 10^3 | +5.7 p > 0.05% | +14.9 p > 0.05% | +2.8 p > 0.05% | 5.9 ± 0.3 10^−3 | high immunostimulating action | 682.6±33.3 cells per 10^6 spleen cells | 69.6±6.0 × 10^3 |  | +7.7 p > 0.05% | 6.3 ± 0.4 10^−3 | no immunogenic activity | +2.8 p >0.05% |  |
